{"source": "patent US20240269104A1", "about": "“METHOD FOR TREATING PARKINSON'S DISEASE” (Olatec Therapeutics, Inc., priority 2021, published 2024)", "key": {"[1]": {"test_system": "MPTP-injected-mouse model of PD", "assay": "accelerating rotarod test after MPTP-acute administration", "assay_type": "in vivo, C56BL/J mice", "procedure": "MPTP (Sigma-Aldrich, St. Louis, MO) can be administered at two dose regimens: acute and sub-acute. For the acute regimen, MPTP was administered intraperitoneally (i.p.) four times in one day. Administrations were performed every two hours over an eight-hour period. For the subacute regimen, mice received a single i.p. administration of MPTP per day for five consecutive days. A 20 mg/kg free-base MPTP dose was used for every dose in both models. Sterile saline was used as the vehicle. Control mice were injected with saline solution using the same administration protocol and were defined as sham. Mice were sacrificed at different days after the first injection of MPTP. We used the acute protocol in C56BL/J mice to study dopamine neurodegeneration, inflammation, and motor deficits, whereas the subacute model was used to evaluate α-synuclein aggregation in the following examples. […]\nThe accelerating rotarod (Ugo Basile, Gemonio, ITALY) was used to evaluate locomotor function in mice subjected to the MPTP-acute administration. An accelerating program was selected to detect locomotor impairments associated to MPTP (Keshet et al, J Comp Neurol 504:690-701, 2007; Rui et al., Int J Neuropsychopharmacol., 2020). We used a rotarod device with a cylinder rod of three centimeters in diameter. The mice underwent a training period of three consecutive days prior to MPTP administration. In each training session, mice were subjected to run at four constant speeds (10 rpm, 20 rpm, 30 rpm, and 40 rpm) for 150 seconds at each speed. If mice fell during that time, they were put back in the rotarod immediately. On the testing day, we used an increased-speed program. Mice were placed on the rotarod device for 150 seconds at 30 rpm as warm up. Immediately after 150 seconds, the accelerating session started, and the speed increased from 30 rpm to 70 rpm for 500 seconds. Time to fall was recorded. Accelerating sessions were repeated three times with a resting interval of five minutes between sessions. Average time to fall per mouse was calculated and used as final measurement.\nWe then evaluated the effect of dapansutrile. To avoid overloading animals with fluid (which can lead to fatal heart failure), dapansutrile was administered through oral gavage at 200 mg/kg in water. Dapansutrile was given 30 minutes before the first injection of MPTP. Mice treated with saline were used as control. We also included a sham-group that received saline through intraperitoneal injections instead of MPTP. […]"}, "[2]": {"test_system": "IL-6", "assay": "IL-6 in brain homogenates by ELISA after MPTP", "assay_type": "in vivo, mice", "settings": "200 mg/kg once each day; seven days after MPTP-acute", "excerpt": "It has been reported that administration of MPTP induces the assembly of NLPR3 inflammasome in the brain. Mice were sacrificed after anesthesia by cervical dislocation at 4 and 7 days after MPTP administration. Brains were collected, and the striatum (St) and ventral midbrain (VM) areas of both hemispheres were excised and frozen in liquid nitrogen. Samples were homogenized in RIPA buffer (Thermo Fisher, Waltham, MA) supplemented with protease inhibitor (Thermo Fisher) using a TissueRuptor (Qiagen, Germantown, MD). Protein concentration was determined using a BCA Protein Assay Kit (Thermo Fisher) according to manufacturer's instructions. Samples were diluted to 2 mg/ml in the same extraction buffer.\nLevels of IL-1β, IL-18, IL-6, and IL-17A from brain homogenates were measured by ELISA DuoSet kit (R&D Systems, Minneapolis, MN). ELISA kit for IL-1β detects 92-95% of the 17 kDa form and only 8-5% of the precursor form of this cytokine. 96-well plates (ThermoFisher Scientific) were coated with capture antibody. Samples were incubated for two hours at room temperature. Detection antibodies and streptavidin-HRP were added. TMB ELISA (cBioscience, San Diego, CA) was used as substrate solution. Results were measured in a microplate reader (Bio-Tek, Santa Clara, CA). Final values were normalized by the protein concentration of each sample. 4-5 mice per group were used for each cytokine."}, "[3]": {"test_system": "TREM2", "assay": "TREM2 immunoblotting in the striatum after MPTP-acute administration", "assay_type": "in vivo, mice", "settings": "200 mg/kg once each day; day 4 after MPTP-acute", "procedure": "In this example, we measured the levels of […] (TREM2) after dapansutrile treatment. TREM2 may be a potential target for treating PD. For TREM2, mice were sacrificed at day 4 after MPTP-acute administration. The St was excised, and proteins were extracted and quantified as described in Example 9. 30 μg of protein per sample were resolved in a Mini-PROTEAN TGX 4-20% gradient gel (Bio-Rad, Hercules, CA) in 0.1% SDS running buffer (Bio-Rad). The gel was transferred to a […] nitrocellulose membrane (GE Healthcare, Chicago, IL). Membranes were blocked with 5% blocking buffer (Bio-Rad) in TBS 0.1% (v/v) Tween solution for one hour at room temperature. Samples were incubated overnight with primary antibody for mouse TREM2 (1:1000, Cell Signaling, Danvers, MA). Peroxidase-conjugated secondary antibody (Jackson ImmunoResearch, Philadelphia, PA) and chemiluminescence were used to detect the protein concentration. Conjugated antibody against β-actin (Santa Cruz Biotechnology, Dallas, TX) was used to normalize protein concentrations. Protein bands for monomeric and oligomeric forms of each individual mice were quantified using NIH ImageJ software. Four mice per group were used."}, "[4]": {"settings": "200 mg/kg once a day, three days after MPTP-acute"}, "[5]": {"settings": "200 mg/kg oral gavage 30 minutes before first MPTP injection, day 3 after MPTP"}}}
{"smiles": "CS(=O)(=O)CCC#N", "note": "[dapansutrile, 3-methanesulfonylpropionitrile]", "values": [{"measurement": "time to fall on accelerating rotarod versus MPTP+saline", "setting": "[1]; 60 mg/kg once a day, three days after MPTP-acute", "value": "did not show any significant improvement"}, {"measurement": "mice that reached 8 cm/s on the rotarod", "setting": "[1]; [4]", "value": 7, "unit": "%"}, {"measurement": "mice that reached the 7 cm/s speed on the rotarod", "setting": "[1]; [4]", "value": "approximately 50%"}, {"measurement": "time to fall on accelerating rotarod versus MPTP+saline", "setting": "[1]; [4]", "value": "doubling"}, {"measurement": "time to fall on accelerating rotarod versus sham mice", "setting": "[1]; [4]", "value": "nearly the same as the sham mice"}, {"measurement": "rotarod latency to fall, difference against sham group", "setting": "[1]; [5]", "value": "not significant differences"}, {"measurement": "time on the rotarod more than mice treated with water (latency to fall)", "setting": "[1]; [5]", "value": "around 90 seconds"}, {"measurement": "levels of IL-6 in the ventral midbrain (VM)", "setting": "[2]", "value": "No effects were detected"}, {"measurement": "reduction of levels of IL-6 in the striatum (St)", "setting": "[2]", "value": 26, "unit": "%"}, {"measurement": "levels of 35 kDa-glycosylated form of TREM2 in the striatum", "setting": "[3]", "value": "no changes"}, {"measurement": "levels of nonglycosylated form of TREM2 (28 kDa) in the striatum", "setting": "[3]", "value": "significantly increased, reaching basal condition"}]}
